EC50 data for 3 compounds are collected here from patent US20080057529A1, “Method for Identifying Histone Deacetylase Inhibitors” (priority 2003, published 2008).

Broadly, the pEC50 is −log10 of the EC50, conventionally taken in molar units.

Structures are written as SMILES. pEC50: −log10 of the molar value. Where two headings read alike, the source gives them in different places.

Type in all cases: cell-based, human
One assay concerns endogenous p21. Nature of the assay: Induction of endogenous p21 in HeLa cells, immunoblot. The note with it: 13 hour treatment, immunoblot densitometry, read-out: Endogenous p2 EC50. On the procedure: (§1) Induction of endogenous p21 and acetylation of core histones (inhibition of HDAC activity) was as follows. Dose-response experiments were performed in HeLa cells with different classes of known HDAC inhibitors. […] An α-tubulin-specific antibody (Sigma, St. Louis, Mo.; catalog number: T9026) was used as an internal standard. Quantitative data were obtained by densitometric analysis of X-ray films and were normalized for the internal standard values.

A further assay deals with p21 minimal promoter. Nature of the assay: Fluorometric β-lactamase activity assay in stable HeLa clone 1.17 (p21m-BLA). To be noted: read-out: p21m-Bla EC50. As for the experimental part:
All clones were screened for the presence of stably and functional integrated copies of the p21m-BLA reporter gene transcription cassette by performing a fluorometric β-lactamase activity assay after treatment with the HDAC inhibitor Apicidin at a concentration of 1 μM (saturating dose representing 100% of Bla gene activation, i.e., 100% of HDAC inhibition). A 100 μL aliquot of cells for each stable transformant in complete DMEM was plated into a well of a 96 well plate at about 36,000 cells per well for treatment with 1 μM Apicidin (saturating dose) and a 100 μL aliquot of cells was plated into a well of a 96 well plate at 24,000 cells per well for treatment with DMSO (vehicle control). […] After 4 hours, 25 μL of complete DMEM containing Apicidin at 5× final concentration or DMSO (5%) was added to each of the wells. The cells were then grown at 37° C., 5% CO2 for about 12 to 16 hours. Afterwards, the medium was removed and 100 μL of DMEM without serum and 25 μL of FRET labeled CCF2-AM Bla substrate diluted in the appropriate buffer according to the manufacturer recommendations were each added to the cells to give a final concentration of 1 μM CCF2-AM.

In assay [1] the test system is HDAC activity (acetylated histone H3). The assay can be described thus: Acetylation of core histones (inhibition of HDAC activity) in HeLa cells, acetylated histone H3 immunoblot. To be noted: Homo sapiens; HeLa cells, 13 hour treatment, immunoblot densitometry; read-out: AcH3 EC50. As for the experimental part: as §1
Background: In western blotting, separated proteins are transferred to a membrane and probed.

In the case of `Nc1ccccc1NC(=O)c1ccc(CNC(=O)OCc2cccnc2)cc1` [MS27-275], the pEC50 is 4.66 with endogenous p21 and 4.92 at p21 minimal promoter (clone 1.17, about 13 hours treatment, means of 3 to 4 independent experiments).
Consider `CCCC(=O)[O-].[Na+]` [Na-butyrate, sodium butyrate], for which, in the assay with p21 minimal promoter (Homo sapiens, HeLa, 13 h), the pEC50 is 2.70.
Regarding `O=C(CCCCCCC(=O)Nc1ccccc1)NO` [SAHA, suberoylanilide hydroxamic acid], in assay [1], the pEC50 was 6.10.
